These results are taken from patent US9226916B2, “Pyrrolidine derivatives” (HOFFMANN-LA ROCHE INC., priority 2009, dated 2016).

The experiment addresses T1, recombinant human NK3 receptor (Homo sapiens, UniProt P29371).
T1 construct: expressed in transfected cells; host or cells: HEK293 cells, transient expression; membranes
T1 sequence (P29371 1-465): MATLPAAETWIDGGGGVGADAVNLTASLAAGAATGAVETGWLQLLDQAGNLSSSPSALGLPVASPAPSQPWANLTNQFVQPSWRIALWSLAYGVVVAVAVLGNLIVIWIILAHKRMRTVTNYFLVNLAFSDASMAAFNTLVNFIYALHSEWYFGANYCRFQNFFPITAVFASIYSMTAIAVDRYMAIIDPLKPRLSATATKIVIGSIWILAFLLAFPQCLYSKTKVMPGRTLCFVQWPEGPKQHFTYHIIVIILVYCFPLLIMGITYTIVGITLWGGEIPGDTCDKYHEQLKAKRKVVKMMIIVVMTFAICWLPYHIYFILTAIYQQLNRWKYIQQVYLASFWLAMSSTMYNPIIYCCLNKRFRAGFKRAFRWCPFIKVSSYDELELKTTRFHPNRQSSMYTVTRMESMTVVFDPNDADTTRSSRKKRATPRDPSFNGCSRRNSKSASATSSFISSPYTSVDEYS
Kind of experiment: [3H]SR142801 competition binding assay.

Usually Ki stands for the dissociation constant of the complex between target and ligand, obtained from inhibition or displacement.

In the case of `CN(C(=O)Oc1ccc(F)cc1)[C@@H]1CN(C(=O)C2CCN(C(=O)C3CC(F)(F)C3)CC2)C[C@H]1c1ccc(Cl)cc1` [Example 250, {(3S,4R)-4-(4-Chloro-phenyl)-1-[1-(3,3-difluoro-cyclobutanecarbonyl)-piperidine-4-carbonyl]-pyrrolidin-3-yl}-methyl-carbamic acid 4-fluoro-phenyl Ester], the Ki stood at 1.4 nM.

Regarding `COC1CC(C(=O)N2CCC(C(=O)N3C[C@@H](N(C)C(=O)Oc4ccc(F)cc4)[C@H](c4ccc(Cl)cc4)C3)CC2)C1` (stereo partly drawn) [Example 251, {(3S,4R)-4-(4-Chloro-phenyl)-1-[1-(3-methoxy-cyclobutanecarbonyl)-piperidine-4-carbonyl]-pyrrolidin-3-yl}-methyl-carbamic acid 4-fluoro-phenyl ester], the Ki worked out at 2.2 nM.

On to `CN(C(=O)Oc1ccc(F)cc1)[C@@H]1CN(C(=O)C2CCN(C(=O)C3(C(F)(F)F)CCC3)CC2)C[C@H]1c1ccc(Cl)cc1` [Example 252, {(3S,4R)-4-(4-Chloro-phenyl)-1-[1-(1-trifluoromethyl-cyclobutanecarbonyl)-piperidine-4-carbonyl]-pyrrolidin-3-yl}-methyl-carbamic acid 4-fluoro-phenyl ester], for which the Ki came to 2.7 nM.

Regarding `CN(C(=O)Oc1ccc(F)cc1)[C@@H]1CN(C(=O)C2CCN(C(=O)CC#N)CC2)C[C@H]1c1ccc(Cl)cc1` [Example 253, {(3S,4R)-4-(4-Chloro-phenyl)-1-[1-(2-cyano-acetyl)-piperidine-4-carbonyl]-pyrrolidin-3-yl}-methyl-carbamic acid 4-fluoro-phenyl ester], the Ki came out at 1.8 nM.

Regarding `CN(C(=O)Oc1ccc(F)cc1)[C@@H]1CN(C(=O)C2CCN(C(=O)C3(C#N)CC3)CC2)C[C@H]1c1ccc(Cl)cc1` [Example 254, {(3S,4R)-4-(4-Chloro-phenyl)-1-[1-(1-cyano-cyclopropanecarbonyl)-piperidine-4-carbonyl]-pyrrolidin-3-yl}-methyl-carbamic acid 4-fluoro-phenyl ester], the inhibitory constant (Ki) stood at 2 nM.

`CN(C(=O)Oc1ccc(F)cc1)[C@@H]1CN(C(=O)C2CCN(C(=O)C3(C(F)(F)F)CC3)CC2)C[C@H]1c1ccc(Cl)cc1` [Example 255, {(3S,4R)-4-(4-Chloro-phenyl)-1-[1-(1-trifluoromethyl-cyclopropanecarbonyl)-piperidine-4-carbonyl]-pyrrolidin-3-yl}-methyl-carbamic acid 4-fluoro-phenyl ester]: the Ki worked out at 2.5 nM.

Regarding `CN(C(=O)Oc1ccc(F)cc1)[C@@H]1CN(C(=O)C2CCN(C(=O)C3CC3(F)F)CC2)C[C@H]1c1ccc(Cl)cc1` (stereo partly drawn) [Example 256, {(3S,4R)-4-(4-Chloro-phenyl)-1-[1-(2,2-difluoro-cyclopropanecarbonyl)-piperidine-4-carbonyl]-pyrrolidin-3-yl}-methyl-carbamic acid 4-fluoro-phenyl ester], the Ki was 2.6 nM.

In the case of `CN(C(=O)Oc1ccc(F)cc1)[C@@H]1CN(C(=O)C2CCN(C(=O)C3CCOCC3)CC2)C[C@H]1c1ccc(Cl)cc1` [Example 257, {(3S,4R)-4-(4-Chloro-phenyl)-1-[1-(tetrahydro-pyran-4-carbonyl)-piperidine-4-carbonyl]-pyrrolidin-3-yl}-methyl-carbamic acid 4-fluoro-phenyl ester], the Ki was determined as 2.2 nM.

`CN(C(=O)Oc1ccc(F)cc1)[C@@H]1CN(C(=O)C2CCN(C(=O)C3CCOC(C)(C)C3)CC2)C[C@H]1c1ccc(Cl)cc1` (stereo partly drawn) [Example 258, {(3S,4R)-4-(4-Chloro-phenyl)-1-[1-(2,2-dimethyl-tetrahydro-pyran-4-carbonyl)-piperidine-4-carbonyl]-pyrrolidin-3-yl}-methyl-carbamic acid 4-fluoro-phenyl ester]: the Ki worked out at 2.9 nM.

On to `COCC1(C(=O)N2CCC(C(=O)N3C[C@@H](N(C)C(=O)Oc4ccc(F)cc4)[C@H](c4ccc(Cl)cc4)C3)CC2)CC1` [Example 259, {(3S,4R)-4-(4-Chloro-phenyl)-1-[1-(1-methoxymethyl-cyclopropanecarbonyl)-piperidine-4-carbonyl]-pyrrolidin-3-yl}-methyl-carbamic acid 4-fluoro-phenyl ester], for which the inhibitory constant (Ki) was 3.8 nM.

As to `CN(C(=O)Oc1ccc(F)cc1)[C@@H]1CN(C(=O)C2CCN(C(=O)C3CC3(C)C)CC2)C[C@H]1c1ccc(Cl)cc1` (stereo partly drawn) [Example 260, {(3S,4R)-4-(4-Chloro-phenyl)-1-[1-(2,2-dimethyl-cyclopropanecarbonyl)-piperidine-4-carbonyl]-pyrrolidin-3-yl}-methyl-carbamic acid 4-fluoro-phenyl ester], the Ki is 1.5 nM.

`CN(C(=O)Oc1ccc(F)cc1)[C@@H]1CN(C(=O)C2CCN(C(=O)c3ccc(C(F)(F)F)cn3)CC2)C[C@H]1c1ccc(Cl)cc1` [Example 261, {(3S,4R)-4-(4-Chloro-phenyl)-1-[1-(5-trifluoromethyl-pyridine-2-carbonyl)-piperidine-4-carbonyl]-pyrrolidin-3-yl}-methyl-carbamic acid 4-fluoro-phenyl ester]: the Ki worked out at 18.9 nM.

Consider `CN(C(=O)Oc1ccc(F)cc1)[C@@H]1CN(C(=O)C2CCN(C(=O)c3ccc(F)cn3)CC2)C[C@H]1c1ccc(Cl)cc1` [Example 262, {(3S,4R)-4-(4-Chloro-phenyl)-1-[1-(5-fluoro-pyridine-2-carbonyl)-piperidine-4-carbonyl]-pyrrolidin-3-yl}-methyl-carbamic acid 4-fluoro-phenyl ester], for which the Ki stood at 3.9 nM.

For `CN(C(=O)Oc1ccc(F)cc1)[C@@H]1CN(C(=O)C2CCN(C(=O)C3CCC(=O)NC3)CC2)C[C@H]1c1ccc(Cl)cc1` (stereo partly drawn) [Example 263, {(3S,4R)-4-(4-Chloro-phenyl)-1-[1-(6-oxo-piperidine-3-carbonyl)-piperidine-4-carbonyl]-pyrrolidin-3-yl}-methyl-carbamic acid 4-fluoro-phenyl ester], the Ki turned out to be 15.1 nM.

As for `CC(C)N1CC(C(=O)N2CCC(C(=O)N3C[C@@H](N(C)C(=O)Oc4ccc(F)cc4)[C@H](c4ccc(Cl)cc4)C3)CC2)CCC1=O` (stereo partly drawn) [Example 264, {(3S,4R)-4-(4-Chloro-phenyl)-1-[1-(1-isopropyl-6-oxo-piperidine-3-carbonyl)-piperidine-4-carbonyl]-pyrrolidin-3-yl}-methyl-carbamic acid 4-fluoro-phenyl ester], the Ki worked out at 8.8 nM.

As for `CN(C(=O)Oc1ccc(F)cc1)[C@@H]1CN(C(=O)C2CCN(C(=O)C3CCC3)CC2)C[C@H]1c1ccc(Cl)c(Cl)c1` [Example 265, [(3S,4R)-1-(1-Cyclobutanecarbonyl-piperidine-4-carbonyl)-4-(3,4-dichloro-phenyl)-pyrrolidin-3-yl]-methyl-carbamic acid 4-fluoro-phenyl ester], the Ki is 0.6 nM.

Consider `CN(C(=O)Oc1ccc(F)cc1)[C@@H]1CN(C(=O)C2CCN(C(=O)C3(C)COC3)CC2)C[C@H]1c1ccc(Cl)c(Cl)c1` [Example 266, {(3S,4R)-4-(3,4-Dichloro-phenyl)-1-[1-(3-methyl-oxetane-3-carbonyl)-piperidine-4-carbonyl]-pyrrolidin-3-yl}-methyl-carbamic acid 4-fluoro-phenyl ester], for which the Ki turned out to be 0.5 nM.

`CN(C(=O)Oc1ccc(F)cc1)[C@@H]1CN(C(=O)C2CCN(C(=O)C3CC(F)C3)CC2)C[C@H]1c1ccc(Cl)c(Cl)c1` (stereo partly drawn) [Example 267, {(3S,4R)-4-(3,4-Dichloro-phenyl)-1-[1-(3-fluoro-cyclobutanecarbonyl)-piperidine-4-carbonyl]-pyrrolidin-3-yl}-methyl-carbamic acid 4-fluoro-phenyl ester]: the Ki turned out to be 0.7 nM.

In the case of `CN(C(=O)Oc1ccc(F)cc1)[C@@H]1CN(C(=O)C2CCN(C(=O)C3CC(F)(F)C3)CC2)C[C@H]1c1ccc(Cl)c(Cl)c1` [Example 268, {(3S,4R)-4-(3,4-Dichloro-phenyl)-1-[1-(3,3-difluoro-cyclobutanecarbonyl)-piperidine-4-carbonyl]-pyrrolidin-3-yl}-methyl-carbamic acid 4-fluoro-phenyl ester], the Ki came out at 0.6 nM.

In the case of `COC1CC(C(=O)N2CCC(C(=O)N3C[C@@H](N(C)C(=O)Oc4ccc(F)cc4)[C@H](c4ccc(Cl)c(Cl)c4)C3)CC2)C1` (stereo partly drawn) [Example 269, {(3S,4R)-4-(3,4-Dichloro-phenyl)-1-[1-(3-methoxy-cyclobutanecarbonyl)-piperidine-4-carbonyl]-pyrrolidin-3-yl}-methyl-carbamic acid 4-fluoro-phenyl ester], the Ki was found to be 0.5 nM.

On to `CN(C(=O)Oc1ccc(F)cc1)[C@@H]1CN(C(=O)C2CCN(C(=O)C3(C(F)(F)F)CCC3)CC2)C[C@H]1c1ccc(Cl)c(Cl)c1` [Example 270, {(3S,4R)-4-(3,4-Dichloro-phenyl)-1-[1-(1-trifluoromethyl-cyclobutanecarbonyl)-piperidine-4-carbonyl]-pyrrolidin-3-yl}-methyl-carbamic acid 4-fluoro-phenyl ester], for which the Ki was determined as 0.6 nM.

As for `CN(C(=O)Oc1ccc(F)cc1)[C@@H]1CN(C(=O)C2CCN(C(=O)CC#N)CC2)C[C@H]1c1ccc(Cl)c(Cl)c1` [Example 271, [(3S,4R)-1-[1-(2-Cyano-acetyl)-piperidine-4-carbonyl]-4-(3,4-dichloro-phenyl)-pyrrolidin-3-yl]-methyl-carbamic acid 4-fluoro-phenyl ester], the Ki is 0.1 nM.

`CN(C(=O)Oc1ccc(F)cc1)[C@@H]1CN(C(=O)C2CCN(C(=O)C3(C#N)CC3)CC2)C[C@H]1c1ccc(Cl)c(Cl)c1` [Example 272, [(3S,4R)-1-[1-(1-Cyano-cyclopropanecarbonyl)-piperidine-4-carbonyl]-4-(3,4-dichloro-phenyl)-pyrrolidin-3-yl]-methyl-carbamic acid 4-fluoro-phenyl ester]: the Ki was found to be 0.8 nM.
